Consider four compounds from ChEMBL document CHEMBL4196200 (J Med Chem, 2018).

Data set [1] deals with T1, Oxytocin receptor (Homo sapiens) (UniProt P30559).
T1 sequence (whole entry): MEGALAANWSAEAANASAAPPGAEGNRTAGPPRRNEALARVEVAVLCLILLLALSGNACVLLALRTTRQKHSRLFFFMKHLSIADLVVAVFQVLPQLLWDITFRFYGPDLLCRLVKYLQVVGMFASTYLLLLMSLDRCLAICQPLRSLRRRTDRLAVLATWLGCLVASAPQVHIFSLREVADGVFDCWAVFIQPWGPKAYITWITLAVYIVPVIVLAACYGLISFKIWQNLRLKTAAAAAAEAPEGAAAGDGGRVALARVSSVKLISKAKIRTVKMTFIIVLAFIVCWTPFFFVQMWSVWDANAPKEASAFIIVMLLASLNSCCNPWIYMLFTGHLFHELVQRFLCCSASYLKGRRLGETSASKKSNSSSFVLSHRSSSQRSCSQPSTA
The data set is described as follows: Agonist activity at recombinant human OTR expressed in CHO-DUKX-A2 cells assessed as stimulation of intracellular calcium concentration by calcium 3 dye based FLIPR assay relative to OT. The class given is functional, cell-based.

Data set [2] concerns the target T2, Oxytocin receptor (Mus musculus) (UniProt P97926).
T2 sequence (whole entry): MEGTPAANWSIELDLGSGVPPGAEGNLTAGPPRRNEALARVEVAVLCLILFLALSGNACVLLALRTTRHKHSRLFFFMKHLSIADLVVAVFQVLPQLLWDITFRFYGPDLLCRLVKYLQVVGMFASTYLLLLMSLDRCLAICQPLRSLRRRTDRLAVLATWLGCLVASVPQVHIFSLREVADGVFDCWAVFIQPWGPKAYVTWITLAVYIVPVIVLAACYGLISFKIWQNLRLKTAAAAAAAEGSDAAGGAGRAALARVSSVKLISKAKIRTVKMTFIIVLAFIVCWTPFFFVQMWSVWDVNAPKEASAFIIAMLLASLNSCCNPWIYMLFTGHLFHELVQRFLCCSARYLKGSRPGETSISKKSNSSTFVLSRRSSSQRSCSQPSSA
The data set is described as follows: Agonist activity at mouse OTR receptor expressed in HEK293FT cells assessed as stimulation of calcium release by Aequorin based assay relative to OT. The class given is functional, cell-based.

For data set [3], the target named is T1, Oxytocin receptor (Homo sapiens). The data set is described as follows: Agonist activity at human OTR receptor expressed in HEK293FT cells assessed as stimulation of calcium release by Aequorin based assay relative to OT. Type of data set: functional, cell-based.
The target in data set [4] is T3, Oxytocin receptor (Mus musculus, UniProt P97926).
T3 sequence (P97926 whole entry): T2 sequence (whole entry)
The data set is described as follows: Agonist activity at mouse OTR receptor expressed in HEK293FT cells assessed as stimulation of calcium release by Aequorin based assay. The class given is functional, cell-based.

Data set [5] deals with T4, Vasopressin V2 receptor (Homo sapiens, UniProt P30518). The data set is described as follows: Binding affinity to V2 receptor (unknown origin).
T4 sequence (P30518 whole entry): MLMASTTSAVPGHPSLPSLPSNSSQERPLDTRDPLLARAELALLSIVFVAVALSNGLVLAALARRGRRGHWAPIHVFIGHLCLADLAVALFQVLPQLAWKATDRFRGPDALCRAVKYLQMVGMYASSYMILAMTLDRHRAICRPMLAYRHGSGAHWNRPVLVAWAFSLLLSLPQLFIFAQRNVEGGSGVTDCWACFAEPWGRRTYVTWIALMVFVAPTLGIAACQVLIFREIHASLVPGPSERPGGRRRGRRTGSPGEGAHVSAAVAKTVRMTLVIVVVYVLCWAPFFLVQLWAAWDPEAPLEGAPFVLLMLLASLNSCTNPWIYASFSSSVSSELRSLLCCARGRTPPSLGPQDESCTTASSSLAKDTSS
In data set [6] the target is T4, Vasopressin V2 receptor. The data set is described as follows: Displacement of DY647 from SNAP-tagged V2 receptor (unknown origin) expressed in HEK293 cells by TR-FRET assay. The class given is cell-based.
Data set [7] concerns the target T1, Oxytocin receptor (Homo sapiens). The data set is described as follows: Antagonist activity at human OTR expressed in HEK cells assessed as inhibition of OT-induced intracellular calcium flux at 1 uM incubated for 45 mins by Indo1-AM dye based fluorescence assay relative to OT. Type of data set: functional, cell-based.
Data set [8] has the same target. The data set is described as follows: Agonist activity at human OTR expressed in HEK cells assessed as increase in intracellular calcium flux incubated for 45 mins by Indo1-AM dye based fluorescence assay relative to OT. Type of data set: functional, cell-based.
The target of data set [9] is T5, Vasopressin V1b receptor (Homo sapiens, UniProt P47901).
T5 sequence (P47901 whole entry): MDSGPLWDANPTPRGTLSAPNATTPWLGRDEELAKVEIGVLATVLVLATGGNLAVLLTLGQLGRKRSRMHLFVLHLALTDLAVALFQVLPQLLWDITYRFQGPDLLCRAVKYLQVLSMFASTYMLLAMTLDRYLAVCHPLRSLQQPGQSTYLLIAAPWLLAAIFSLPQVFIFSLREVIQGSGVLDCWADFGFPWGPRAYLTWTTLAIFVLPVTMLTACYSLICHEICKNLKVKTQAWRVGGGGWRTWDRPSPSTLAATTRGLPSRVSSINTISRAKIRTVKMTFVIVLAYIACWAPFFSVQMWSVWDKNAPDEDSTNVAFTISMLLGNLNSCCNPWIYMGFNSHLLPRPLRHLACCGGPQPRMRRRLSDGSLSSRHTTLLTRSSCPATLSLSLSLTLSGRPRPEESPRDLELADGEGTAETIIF
The data set is described as follows: Binding affinity to V1B receptor (unknown origin).

Data set [10] is described as follows: Thermodynamic solubility in pH 7.4 buffer. The note with it: read-out: Therm_solubility. Type of data set: physicochemical.
Data set [11] has as its target T4, Vasopressin V2 receptor. The data set is described as follows: Agonist activity at human V2 receptor expressed in HEK293FT cells assessed as stimulation of calcium release by Aequorin based assay. Type of data set: functional, cell-based.
The target in data set [12] is T1, Oxytocin receptor (Homo sapiens). The data set is described as follows: Agonist activity at human OTR receptor expressed in HEK293FT cells incubated for 30 mins by beta-arrestin recruitment assay relative to OT. The class given is functional, cell-based.
In data set [13] the target is T5, Vasopressin V1b receptor.
Description: Agonist activity at human V1b receptor expressed in HEK293FT cells incubated for 30 mins by beta-arrestin recruitment assay
The target of data set [14] is T6, Vasopressin V1a receptor (Homo sapiens, UniProt P37288).
Target sequence in this assay (P37288 whole entry): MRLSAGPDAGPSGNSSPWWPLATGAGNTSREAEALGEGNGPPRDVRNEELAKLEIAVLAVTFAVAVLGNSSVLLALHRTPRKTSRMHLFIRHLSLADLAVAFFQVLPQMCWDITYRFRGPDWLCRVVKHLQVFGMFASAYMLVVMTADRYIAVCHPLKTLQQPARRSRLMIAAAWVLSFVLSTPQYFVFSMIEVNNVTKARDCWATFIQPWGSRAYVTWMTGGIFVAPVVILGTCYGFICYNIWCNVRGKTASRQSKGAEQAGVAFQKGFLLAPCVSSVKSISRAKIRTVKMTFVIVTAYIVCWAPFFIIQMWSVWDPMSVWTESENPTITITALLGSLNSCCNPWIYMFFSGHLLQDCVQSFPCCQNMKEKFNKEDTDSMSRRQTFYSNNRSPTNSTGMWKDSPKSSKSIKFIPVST
Description: Agonist activity at human V1a receptor expressed in HEK293FT cells assessed as stimulation of calcium release by Aequorin based assay
The target of data set [15] is T6, Vasopressin V1a receptor. The source holds these as a separate data set.
Target sequence in this assay (P37288 whole entry): as above
Description: Agonist activity at human V1a receptor expressed in HEK293FT cells incubated for 30 mins by beta-arrestin recruitment assay
The target of data set [16] is T7, Oxytocin receptor (Homo sapiens, UniProt P30559).
T7 sequence (P30559 whole entry): T1 sequence (whole entry)
The data set is described as follows: Antagonist activity at OXR receptor (unknown origin). The class given is functional.

Data set [17] concerns the target T1, Oxytocin receptor (Homo sapiens). The data set is described as follows: Agonist activity at human OTR receptor expressed in CHO cells assessed as increase in myo-inositol 1-phosphate accumulation at 1 uM by IP-One assay relative to OT. Type of data set: functional, cell-based.
Data set [18] has as its target T4, Vasopressin V2 receptor. The data set is described as follows: Antagonist activity at V2 receptor (unknown origin). Type of data set: functional.
Data set [19] deals with T6, Vasopressin V1a receptor. The data set is described as follows: Antagonist activity at V1A receptor (unknown origin). Type of data set: functional.
Target sequence in this assay (P37288 whole entry): as above
Data set [20] addresses T6, Vasopressin V1a receptor. The data set is described as follows: Agonist activity at human V1A receptor expressed in CHO cells assessed as increase in myo-inositol 1-phosphate accumulation at 1 uM by IP-One assay relative to AVP. Type of data set: functional, cell-based.
Target sequence in this assay (P37288 whole entry, looked up): as the sequence (P37288 whole entry) above
Data set [21] has as its target T7, Oxytocin receptor. The data set is described as follows: Antagonist activity at human OTR receptor expressed in HEK293FT cells assessed as inhibition of LIT-001-induced response incubated for 30 mins by beta-arrestin recruitment assay. Type of data set: functional, cell-based.
The target of data set [22] is T4, Vasopressin V2 receptor. The data set is described as follows: Antagonist activity at human V2 receptor expressed in HEK293FT cells assessed as inhibition of […] response incubated for 30 mins by beta-arrestin recruitment assay. Type of data set: functional, cell-based.
The target of data set [23] is T7, Oxytocin receptor. The data set is described as follows: Antagonist activity at human OTR receptor expressed in HEK293FT cells assessed as inhibition of LIT-001-induced calcium release by Aequorin based assay. The class given is functional, cell-based.
In data set [24] the target is T4, Vasopressin V2 receptor. The data set is described as follows: Antagonist activity at human V2 receptor expressed in HEK293FT cells assessed as inhibition of AVP-induced calcium release by Aequorin based assay. The class given is functional, cell-based.

≈ marks a conversion by molar mass, not a printed value. Numbered stars: 1 amine (or outer) side, 2 acyl side, 3 side chain; on linkers, the order of the positions; unused ones are H or OH. Bridge positions count the residues as written; N and C are the ends. Peptide text beside a SMILES is read from it. X1 = O=C(CCC[*:2])[*:1]

For `Cc1cc(C(=O)N2Cc3cnn(C)c3Nc3ccccc32)ccc1CNC(=O)N1CCN(Cc2cc(O)cc(O)c2)CC1`, the Emax in data set [1] stood at 87.1%; in data set [2], 86%; in data set [3], 70%; in [8], 40%; in [12], 84%. Moreover, the EC50 at Oxytocin receptor [4] was 78 nM; on Vasopressin V2 receptor [11], 2300 nM. Besides, the inhibition constant (Ki) on Vasopressin V2 receptor [5] is 58.4 to 1000 nM; at Vasopressin V2 receptor [6] it was greater than 1000 nM; on Vasopressin V1b receptor [9], 1 to 5.8 µM. The inhibition in data set [7] was 5 to 10%. Besides, the solubility thermodynamic in [10] amounted to 5 mM (≈ 2910 µg/mL).
On to `CC[C@H](C)[C@@H]1NC(=O)[C@H](Cc2ccc(OC)cc2)NC(=O)CCCSC[C@@H](C(=O)N2CCC[C@H]2C(=O)N[C@@H](CC(C)C)C(=O)NCC(N)=O)NC(=O)[C@H](CC(N)=O)NC(=O)[C@H](CCC(N)=O)NC1=O` [CARBETOCIN] (Y(Me)IQNCPLG-NH2; linker N-5 via X1), for which the Emax in [2] turned out to be 85%. The results for the concentration giving a half-maximal response (EC50) on Oxytocin receptor [4], on Vasopressin V1b receptor [13] and at Vasopressin V1a receptor [14] were 62 nM, “Not Active” and “Not Active”, respectively. In addition, the IC50 result against Vasopressin V1a receptor [15] is reported as “Not Active”.
For `O=C(Nc1ccc(C(=O)N2CCCCc3ccccc32)cc1)c1ccccc1-c1ccccc1`, the IC50 stood at 109 nM against Oxytocin receptor [16], 0.57 nM against Vasopressin V2 receptor [18] and 2.74 nM on Vasopressin V1a receptor [19]. The Emax (in data set [17]; at Vasopressin V1a receptor [20]) was less than 10% throughout.
In the case of `COCc1nnc(N2CC(Oc3ccc(F)cc3Cl)C2)n1-c1ccc(OC)nc1`, the IC50 on Oxytocin receptor [21] worked out at 63 nM; on Vasopressin V2 receptor [22], 2620 nM; at Oxytocin receptor [23] it was 600 nM; at Vasopressin V2 receptor [24], 1530 nM.
